# Laboratory results published in ChEMBL document CHEMBL3991601, “The target landscape of clinical kinase drugs” (Science, 2017).
# Calls of active or inactive are those of the source. For most assays here, no stated cut-off is given here; in the data, actives have a measured Kd and inactives only a lower limit.
# Molecular target: Cyclin-dependent kinase 3 (Homo sapiens, UniProt Q00526)
# Sequence (Q00526 whole entry): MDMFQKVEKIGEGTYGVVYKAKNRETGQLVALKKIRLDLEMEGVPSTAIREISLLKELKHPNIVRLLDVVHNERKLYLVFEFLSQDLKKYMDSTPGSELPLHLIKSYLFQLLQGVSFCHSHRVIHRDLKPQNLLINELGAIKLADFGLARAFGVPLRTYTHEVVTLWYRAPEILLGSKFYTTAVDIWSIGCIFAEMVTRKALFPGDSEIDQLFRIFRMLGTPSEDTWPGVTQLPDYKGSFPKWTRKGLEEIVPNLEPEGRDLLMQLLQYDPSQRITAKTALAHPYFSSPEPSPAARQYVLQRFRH
row,SMILES,Kd
1,Cc1ccc(S(=O)(=O)Nc2nc3ccccc3nc2Nc2ccc3nsnc3c2)cc1,> 30 µM (inactive)
2,CN1CC[C@@H](c2c(O)cc(O)c3c(=O)cc(-c4ccccc4Cl)oc23)[C@@H]1CO,> 30 µM (inactive)
3,Cc1cc(-c2cc(O)ccc2Cl)cc2nnc(Nc3ccc(OCCN4CCCC4)cc3)nc12,> 30 µM (inactive)
4,CCN1CCN(Cc2ccc(-c3cc4c(N[C@H](C)c5ccccc5)ncnc4[nH]3)cc2)CC1 [AEE-788],> 30 µM (inactive)
5,Cn1ncc(Cl)c1-c1cc(C(=O)N[C@H](CN)Cc2cccc(F)c2)sc1Cl [AFURESERTIB],> 30 µM (inactive)

# Molecular target: Receptor-interacting serine/threonine-protein kinase 2 (Homo sapiens, UniProt O43353)
# Sequence (O43353 whole entry): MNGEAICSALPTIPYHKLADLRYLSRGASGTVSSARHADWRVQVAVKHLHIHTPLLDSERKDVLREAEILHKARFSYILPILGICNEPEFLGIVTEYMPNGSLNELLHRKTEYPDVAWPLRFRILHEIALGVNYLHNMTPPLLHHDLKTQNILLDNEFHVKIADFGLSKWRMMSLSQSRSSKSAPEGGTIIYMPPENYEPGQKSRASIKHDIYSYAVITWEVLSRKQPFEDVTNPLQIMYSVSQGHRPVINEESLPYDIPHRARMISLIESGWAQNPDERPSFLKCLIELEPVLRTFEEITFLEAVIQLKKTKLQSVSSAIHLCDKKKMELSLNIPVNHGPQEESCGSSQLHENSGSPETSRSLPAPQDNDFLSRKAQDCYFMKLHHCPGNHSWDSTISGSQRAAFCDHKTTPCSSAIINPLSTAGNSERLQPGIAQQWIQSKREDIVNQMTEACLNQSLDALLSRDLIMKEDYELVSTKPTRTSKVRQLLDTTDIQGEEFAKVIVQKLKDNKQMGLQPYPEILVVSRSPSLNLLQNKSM
row,SMILES,Kd
1,Cc1ccc(S(=O)(=O)Nc2nc3ccccc3nc2Nc2ccc3nsnc3c2)cc1,> 30 µM (inactive)
2,CN1CC[C@@H](c2c(O)cc(O)c3c(=O)cc(-c4ccccc4Cl)oc23)[C@@H]1CO,> 30 µM (inactive)
3,Cc1cc(-c2cc(O)ccc2Cl)cc2nnc(Nc3ccc(OCCN4CCCC4)cc3)nc12,0.0009 µM (active)
4,CCN1CCN(Cc2ccc(-c3cc4c(N[C@H](C)c5ccccc5)ncnc4[nH]3)cc2)CC1 [AEE-788],> 30 µM (inactive)
5,Cn1ncc(Cl)c1-c1cc(C(=O)N[C@H](CN)Cc2cccc(F)c2)sc1Cl [AFURESERTIB],> 30 µM (inactive)

# Molecular target: Mitogen-activated protein kinase 7 (Homo sapiens, UniProt Q13164)
# Sequence (Q13164 whole entry): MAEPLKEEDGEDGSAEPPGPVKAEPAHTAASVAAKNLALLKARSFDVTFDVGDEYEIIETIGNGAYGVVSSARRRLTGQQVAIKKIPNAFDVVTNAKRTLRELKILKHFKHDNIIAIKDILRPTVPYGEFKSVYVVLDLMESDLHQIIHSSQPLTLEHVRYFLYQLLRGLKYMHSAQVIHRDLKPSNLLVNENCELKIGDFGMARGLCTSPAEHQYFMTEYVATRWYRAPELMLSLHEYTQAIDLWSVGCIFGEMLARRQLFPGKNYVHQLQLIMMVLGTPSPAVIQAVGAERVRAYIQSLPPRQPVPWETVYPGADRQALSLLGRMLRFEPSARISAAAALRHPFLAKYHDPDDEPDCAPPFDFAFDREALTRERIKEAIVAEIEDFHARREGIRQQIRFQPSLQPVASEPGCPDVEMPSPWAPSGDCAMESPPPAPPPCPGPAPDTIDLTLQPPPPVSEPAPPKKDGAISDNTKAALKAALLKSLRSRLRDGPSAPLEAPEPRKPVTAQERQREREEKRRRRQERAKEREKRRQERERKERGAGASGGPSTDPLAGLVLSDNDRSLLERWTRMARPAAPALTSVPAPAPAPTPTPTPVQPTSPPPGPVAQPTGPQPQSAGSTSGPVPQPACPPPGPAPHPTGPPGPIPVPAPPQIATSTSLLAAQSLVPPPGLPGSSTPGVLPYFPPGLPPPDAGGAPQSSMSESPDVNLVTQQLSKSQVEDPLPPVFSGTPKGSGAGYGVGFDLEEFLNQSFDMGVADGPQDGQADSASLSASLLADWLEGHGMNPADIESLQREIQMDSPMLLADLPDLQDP
row,SMILES,Kd
1,Cc1ccc(S(=O)(=O)Nc2nc3ccccc3nc2Nc2ccc3nsnc3c2)cc1,> 30 µM (inactive)
2,CN1CC[C@@H](c2c(O)cc(O)c3c(=O)cc(-c4ccccc4Cl)oc23)[C@@H]1CO,> 30 µM (inactive)
3,Cc1cc(-c2cc(O)ccc2Cl)cc2nnc(Nc3ccc(OCCN4CCCC4)cc3)nc12,> 30 µM (inactive)
4,CCN1CCN(Cc2ccc(-c3cc4c(N[C@H](C)c5ccccc5)ncnc4[nH]3)cc2)CC1 [AEE-788],> 30 µM (inactive)
5,Cn1ncc(Cl)c1-c1cc(C(=O)N[C@H](CN)Cc2cccc(F)c2)sc1Cl [AFURESERTIB],> 30 µM (inactive)

# Molecular target: LIM domain kinase 2 (Homo sapiens, UniProt P53671)
# Sequence (P53671 whole entry, the tested form may be a part): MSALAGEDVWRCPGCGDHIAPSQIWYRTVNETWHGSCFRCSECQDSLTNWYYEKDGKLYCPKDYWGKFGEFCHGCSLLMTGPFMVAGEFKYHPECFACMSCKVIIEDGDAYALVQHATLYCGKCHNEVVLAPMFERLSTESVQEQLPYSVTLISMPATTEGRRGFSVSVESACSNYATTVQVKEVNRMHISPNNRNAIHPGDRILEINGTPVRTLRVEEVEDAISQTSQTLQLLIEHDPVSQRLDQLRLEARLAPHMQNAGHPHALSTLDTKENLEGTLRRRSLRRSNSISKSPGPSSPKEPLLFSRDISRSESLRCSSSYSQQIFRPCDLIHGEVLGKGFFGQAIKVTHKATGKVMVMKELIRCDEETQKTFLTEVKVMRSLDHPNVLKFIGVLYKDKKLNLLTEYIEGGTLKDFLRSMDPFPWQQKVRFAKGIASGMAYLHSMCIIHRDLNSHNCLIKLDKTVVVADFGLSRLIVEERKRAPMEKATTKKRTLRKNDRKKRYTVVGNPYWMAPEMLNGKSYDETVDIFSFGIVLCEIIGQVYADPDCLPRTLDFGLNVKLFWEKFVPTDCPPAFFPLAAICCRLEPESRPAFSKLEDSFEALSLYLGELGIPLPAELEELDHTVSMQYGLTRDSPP
row,SMILES,Kd
1,Cc1ccc(S(=O)(=O)Nc2nc3ccccc3nc2Nc2ccc3nsnc3c2)cc1,> 30 µM (inactive)
2,CN1CC[C@@H](c2c(O)cc(O)c3c(=O)cc(-c4ccccc4Cl)oc23)[C@@H]1CO,> 30 µM (inactive)
3,Cc1cc(-c2cc(O)ccc2Cl)cc2nnc(Nc3ccc(OCCN4CCCC4)cc3)nc12,> 30 µM (inactive)
4,CCN1CCN(Cc2ccc(-c3cc4c(N[C@H](C)c5ccccc5)ncnc4[nH]3)cc2)CC1 [AEE-788],21.8 µM (active)
5,Cn1ncc(Cl)c1-c1cc(C(=O)N[C@H](CN)Cc2cccc(F)c2)sc1Cl [AFURESERTIB],> 30 µM (inactive)

# Molecular target: Protein kinase C delta type (Homo sapiens, UniProt Q05655)
# Sequence (Q05655 whole entry): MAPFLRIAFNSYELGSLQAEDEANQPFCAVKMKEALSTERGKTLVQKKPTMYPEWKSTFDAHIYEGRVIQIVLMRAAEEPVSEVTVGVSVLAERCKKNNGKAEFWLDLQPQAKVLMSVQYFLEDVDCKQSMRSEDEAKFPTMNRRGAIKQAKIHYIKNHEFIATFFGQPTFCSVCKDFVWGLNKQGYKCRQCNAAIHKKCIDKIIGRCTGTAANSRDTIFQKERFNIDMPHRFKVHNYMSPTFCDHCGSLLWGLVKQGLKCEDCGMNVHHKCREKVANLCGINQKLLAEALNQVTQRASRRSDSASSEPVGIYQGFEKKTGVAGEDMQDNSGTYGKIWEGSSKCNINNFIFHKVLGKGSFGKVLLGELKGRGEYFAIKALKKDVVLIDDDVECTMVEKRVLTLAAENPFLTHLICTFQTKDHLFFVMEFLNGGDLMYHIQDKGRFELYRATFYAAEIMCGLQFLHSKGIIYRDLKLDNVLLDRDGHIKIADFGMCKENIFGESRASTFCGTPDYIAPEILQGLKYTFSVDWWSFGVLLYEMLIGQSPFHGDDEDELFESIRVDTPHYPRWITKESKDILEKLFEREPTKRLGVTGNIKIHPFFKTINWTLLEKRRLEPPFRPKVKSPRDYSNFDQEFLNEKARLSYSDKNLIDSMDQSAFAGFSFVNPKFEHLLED
row,SMILES,Kd
1,Cc1ccc(S(=O)(=O)Nc2nc3ccccc3nc2Nc2ccc3nsnc3c2)cc1,> 30 µM (inactive)
2,CN1CC[C@@H](c2c(O)cc(O)c3c(=O)cc(-c4ccccc4Cl)oc23)[C@@H]1CO,2.39 µM (active)
3,Cc1cc(-c2cc(O)ccc2Cl)cc2nnc(Nc3ccc(OCCN4CCCC4)cc3)nc12,> 30 µM (inactive)
4,CCN1CCN(Cc2ccc(-c3cc4c(N[C@H](C)c5ccccc5)ncnc4[nH]3)cc2)CC1 [AEE-788],> 30 µM (inactive)
5,Cn1ncc(Cl)c1-c1cc(C(=O)N[C@H](CN)Cc2cccc(F)c2)sc1Cl [AFURESERTIB],> 30 µM (inactive)

# Molecular target: Midasin (Homo sapiens, UniProt Q9NU22)
row,SMILES,Kd
1,Cc1ccc(S(=O)(=O)Nc2nc3ccccc3nc2Nc2ccc3nsnc3c2)cc1,> 30 µM (inactive)
2,CN1CC[C@@H](c2c(O)cc(O)c3c(=O)cc(-c4ccccc4Cl)oc23)[C@@H]1CO,> 30 µM (inactive)
3,Cc1cc(-c2cc(O)ccc2Cl)cc2nnc(Nc3ccc(OCCN4CCCC4)cc3)nc12,> 30 µM (inactive)
4,CCN1CCN(Cc2ccc(-c3cc4c(N[C@H](C)c5ccccc5)ncnc4[nH]3)cc2)CC1 [AEE-788],> 30 µM (inactive)
5,Cn1ncc(Cl)c1-c1cc(C(=O)N[C@H](CN)Cc2cccc(F)c2)sc1Cl [AFURESERTIB],> 30 µM (inactive)

# Molecular target: T1, Serine/threonine-protein kinase Nek2 (Homo sapiens, UniProt P51955)
# T1 sequence (P51955 whole entry): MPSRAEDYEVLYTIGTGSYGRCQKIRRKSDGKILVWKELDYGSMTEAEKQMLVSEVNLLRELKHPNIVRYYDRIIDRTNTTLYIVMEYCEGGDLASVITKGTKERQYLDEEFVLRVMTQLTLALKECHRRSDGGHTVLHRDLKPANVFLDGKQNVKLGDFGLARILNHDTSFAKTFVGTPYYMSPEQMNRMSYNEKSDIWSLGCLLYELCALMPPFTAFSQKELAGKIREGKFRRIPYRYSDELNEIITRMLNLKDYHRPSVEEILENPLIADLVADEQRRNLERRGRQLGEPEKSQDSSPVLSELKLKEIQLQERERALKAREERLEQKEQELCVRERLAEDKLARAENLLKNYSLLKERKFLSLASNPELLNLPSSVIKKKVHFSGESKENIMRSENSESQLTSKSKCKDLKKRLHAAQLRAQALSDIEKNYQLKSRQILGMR
row,SMILES,Kd
1,Cc1ccc(S(=O)(=O)Nc2nc3ccccc3nc2Nc2ccc3nsnc3c2)cc1,> 30 µM (inactive)
2,CN1CC[C@@H](c2c(O)cc(O)c3c(=O)cc(-c4ccccc4Cl)oc23)[C@@H]1CO,> 30 µM (inactive)
3,Cc1cc(-c2cc(O)ccc2Cl)cc2nnc(Nc3ccc(OCCN4CCCC4)cc3)nc12,> 30 µM (inactive)
4,CCN1CCN(Cc2ccc(-c3cc4c(N[C@H](C)c5ccccc5)ncnc4[nH]3)cc2)CC1 [AEE-788],> 30 µM (inactive)
5,Cn1ncc(Cl)c1-c1cc(C(=O)N[C@H](CN)Cc2cccc(F)c2)sc1Cl [AFURESERTIB],> 30 µM (inactive)

# Molecular target: T2, Serine/threonine-protein kinase LATS1 (Homo sapiens, UniProt O95835)
# T2 sequence (O95835 whole entry): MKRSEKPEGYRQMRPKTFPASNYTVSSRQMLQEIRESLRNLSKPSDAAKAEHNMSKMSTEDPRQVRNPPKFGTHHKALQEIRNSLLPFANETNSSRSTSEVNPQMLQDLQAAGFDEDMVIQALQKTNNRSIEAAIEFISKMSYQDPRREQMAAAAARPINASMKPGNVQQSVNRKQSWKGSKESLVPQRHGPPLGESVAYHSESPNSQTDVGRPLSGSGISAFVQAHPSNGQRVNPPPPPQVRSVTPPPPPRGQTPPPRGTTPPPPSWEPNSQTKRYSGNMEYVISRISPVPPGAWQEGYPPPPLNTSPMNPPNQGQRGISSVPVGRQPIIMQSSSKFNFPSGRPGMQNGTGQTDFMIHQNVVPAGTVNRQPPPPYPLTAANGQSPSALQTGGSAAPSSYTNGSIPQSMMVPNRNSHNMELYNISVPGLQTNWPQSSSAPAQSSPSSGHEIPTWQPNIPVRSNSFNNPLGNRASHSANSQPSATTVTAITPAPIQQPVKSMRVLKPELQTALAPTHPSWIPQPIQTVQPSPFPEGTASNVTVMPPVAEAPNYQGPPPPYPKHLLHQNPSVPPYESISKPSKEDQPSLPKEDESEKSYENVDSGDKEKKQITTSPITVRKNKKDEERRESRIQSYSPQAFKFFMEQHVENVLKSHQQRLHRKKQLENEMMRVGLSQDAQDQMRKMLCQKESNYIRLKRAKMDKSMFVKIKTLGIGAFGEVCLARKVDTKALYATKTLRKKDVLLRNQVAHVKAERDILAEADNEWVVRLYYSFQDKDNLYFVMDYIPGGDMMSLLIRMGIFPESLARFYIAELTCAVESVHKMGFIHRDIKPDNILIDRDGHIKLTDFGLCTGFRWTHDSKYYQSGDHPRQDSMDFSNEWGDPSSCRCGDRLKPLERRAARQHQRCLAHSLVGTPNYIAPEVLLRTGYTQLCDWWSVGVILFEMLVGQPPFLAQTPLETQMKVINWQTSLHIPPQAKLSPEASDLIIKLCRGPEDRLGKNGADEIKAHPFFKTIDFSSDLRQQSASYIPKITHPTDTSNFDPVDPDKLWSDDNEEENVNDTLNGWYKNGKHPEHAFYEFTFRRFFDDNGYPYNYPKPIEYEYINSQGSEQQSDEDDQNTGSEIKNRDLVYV
row,SMILES,Kd
1,Cc1ccc(S(=O)(=O)Nc2nc3ccccc3nc2Nc2ccc3nsnc3c2)cc1,> 30 µM (inactive)
2,CN1CC[C@@H](c2c(O)cc(O)c3c(=O)cc(-c4ccccc4Cl)oc23)[C@@H]1CO,> 30 µM (inactive)
3,Cc1cc(-c2cc(O)ccc2Cl)cc2nnc(Nc3ccc(OCCN4CCCC4)cc3)nc12,> 30 µM (inactive)
4,CCN1CCN(Cc2ccc(-c3cc4c(N[C@H](C)c5ccccc5)ncnc4[nH]3)cc2)CC1 [AEE-788],> 30 µM (inactive)
5,Cn1ncc(Cl)c1-c1cc(C(=O)N[C@H](CN)Cc2cccc(F)c2)sc1Cl [AFURESERTIB],> 30 µM (inactive)

# Molecular target: Tyrosine-protein kinase HCK (Homo sapiens, UniProt P08631)
# Sequence (P08631 whole entry): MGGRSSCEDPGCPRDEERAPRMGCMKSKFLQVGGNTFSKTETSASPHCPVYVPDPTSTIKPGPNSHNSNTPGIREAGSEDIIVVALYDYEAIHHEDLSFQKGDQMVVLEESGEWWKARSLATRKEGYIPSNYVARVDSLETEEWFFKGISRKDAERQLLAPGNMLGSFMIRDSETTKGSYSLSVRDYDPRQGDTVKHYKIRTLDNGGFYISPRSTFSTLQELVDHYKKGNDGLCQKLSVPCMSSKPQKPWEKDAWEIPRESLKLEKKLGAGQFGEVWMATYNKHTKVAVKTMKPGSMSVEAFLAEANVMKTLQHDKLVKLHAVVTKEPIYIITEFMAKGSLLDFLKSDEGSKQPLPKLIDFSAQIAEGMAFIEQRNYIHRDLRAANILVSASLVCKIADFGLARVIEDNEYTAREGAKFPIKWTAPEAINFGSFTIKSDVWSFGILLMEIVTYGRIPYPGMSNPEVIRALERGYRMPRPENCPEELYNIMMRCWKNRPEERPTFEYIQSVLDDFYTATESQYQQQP
row,SMILES,Kd
1,Cc1ccc(S(=O)(=O)Nc2nc3ccccc3nc2Nc2ccc3nsnc3c2)cc1,> 30 µM (inactive)
2,CN1CC[C@@H](c2c(O)cc(O)c3c(=O)cc(-c4ccccc4Cl)oc23)[C@@H]1CO,> 30 µM (inactive)
3,Cc1cc(-c2cc(O)ccc2Cl)cc2nnc(Nc3ccc(OCCN4CCCC4)cc3)nc12,> 30 µM (inactive)
4,CCN1CCN(Cc2ccc(-c3cc4c(N[C@H](C)c5ccccc5)ncnc4[nH]3)cc2)CC1 [AEE-788],> 30 µM (inactive)
5,Cn1ncc(Cl)c1-c1cc(C(=O)N[C@H](CN)Cc2cccc(F)c2)sc1Cl [AFURESERTIB],> 30 µM (inactive)

# Molecular target: T3, Mitogen-activated protein kinase kinase kinase kinase 2 (Homo sapiens, UniProt Q12851)
# T3 sequence (Q12851 whole entry): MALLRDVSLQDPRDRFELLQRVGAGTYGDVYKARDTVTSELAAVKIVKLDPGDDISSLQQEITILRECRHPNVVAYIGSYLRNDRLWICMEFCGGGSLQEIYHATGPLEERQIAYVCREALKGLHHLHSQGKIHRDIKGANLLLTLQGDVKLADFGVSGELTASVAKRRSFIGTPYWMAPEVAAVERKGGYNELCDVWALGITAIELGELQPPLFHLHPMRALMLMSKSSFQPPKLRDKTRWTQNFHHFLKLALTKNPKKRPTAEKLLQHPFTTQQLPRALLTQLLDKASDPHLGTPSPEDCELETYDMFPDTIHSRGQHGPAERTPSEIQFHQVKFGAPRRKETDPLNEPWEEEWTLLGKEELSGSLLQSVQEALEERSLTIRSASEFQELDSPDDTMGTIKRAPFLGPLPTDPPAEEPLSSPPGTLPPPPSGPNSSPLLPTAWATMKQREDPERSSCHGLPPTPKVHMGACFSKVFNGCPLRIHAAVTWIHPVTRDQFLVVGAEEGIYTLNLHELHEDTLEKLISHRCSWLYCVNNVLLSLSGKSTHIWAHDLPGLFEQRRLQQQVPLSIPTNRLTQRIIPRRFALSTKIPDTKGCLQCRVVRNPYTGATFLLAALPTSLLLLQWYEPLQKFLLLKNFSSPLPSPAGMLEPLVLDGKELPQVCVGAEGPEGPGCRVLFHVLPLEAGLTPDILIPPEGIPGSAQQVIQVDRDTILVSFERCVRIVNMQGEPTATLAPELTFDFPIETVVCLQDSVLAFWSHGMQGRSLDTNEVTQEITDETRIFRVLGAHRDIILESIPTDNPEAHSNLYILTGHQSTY
row,SMILES,Kd
1,Cc1ccc(S(=O)(=O)Nc2nc3ccccc3nc2Nc2ccc3nsnc3c2)cc1,> 30 µM (inactive)
2,CN1CC[C@@H](c2c(O)cc(O)c3c(=O)cc(-c4ccccc4Cl)oc23)[C@@H]1CO,> 30 µM (inactive)
3,Cc1cc(-c2cc(O)ccc2Cl)cc2nnc(Nc3ccc(OCCN4CCCC4)cc3)nc12,> 30 µM (inactive)
4,CCN1CCN(Cc2ccc(-c3cc4c(N[C@H](C)c5ccccc5)ncnc4[nH]3)cc2)CC1 [AEE-788],3.53 µM (active)
5,Cn1ncc(Cl)c1-c1cc(C(=O)N[C@H](CN)Cc2cccc(F)c2)sc1Cl [AFURESERTIB],> 30 µM (inactive)
